# Measured values: patent US7179645B2 (priority 2002, dated 2007)
# Read-outs that look alike come from different tables or passages of the source. [ ]: non-standard residue; d: D form. ava = not defined here
# Experiments:
# [1] = test system: C3H/HeJ mice (H-2^k); antibodies against the PGCC(95–104) epitope peptide; conditions: mouse, in vivo
# [2] = test system: C3H/HeJ mice (H-2^k); antibodies against the PGCC(95–104) epitope peptide; conditions: mouse, in vivo; remark: listed apart in the source
# [3] = test system: SJL/J (H-2s) mice; conditions: mouse, in vivo; cited from earlier work
# [4] = test system: mice; conditions: mouse, in vivo; cited from earlier work
substance,measurement,setting,value
Ac-LRMK-ava-IAYLKQATAK-NH2 (Ac-LRMK[ava]IAYLKQATAK-NH2; reading uncertain; also: printed as Ac-LRMK-ava-IAYLKQATAK-NH2) [Ii-Key/PGCC],antibody titers against PGCC epitope,[1],Significantly greater antibody titers
same,"Antibody induction (ELISA), Dilution^−1 1620",[2],0.071
same,"Antibody induction (ELISA), Dilution^−1 4860",[2],0.024
same,antibody titers against PGCC epitope,[2],Significantly greater antibody titers
HCLGKWLGHPDKFVGI [PL139–154],mice with severe clinical and histological EAE,[3],3 of 20
MOG35–55,"encephalitogenic potential (specific T-cell responses, EAE)",[4],induced specific T-cell responses and EAE
